Measured values: patent US20190175744A1, “INSULIN-INCRETIN CONJUGATES” (Merck Sharp & Dohme Corp., priority 2016, published 2019)
Like-named read-outs stand apart in the source and are kept apart here. Non-standard residues stand in square brackets, D forms with d. Residues, ends and D or L forms follow the SMILES beside them. Lys(N3) = [N-]=[N+]=NCCCC[C@H](N)C(=O)O; Aib = CC(C)(N)C(=O)O

Legend:
human GCGR = target: T1, human GCGR (Homo sapiens, UniProt P47871); test: cAMP activity assay, cells expressing human GCGR; assay type: cell-based; conditions: for GCGR/GLP1R ratio: Table 5, ratio of hGCGR EC50 to hGLP1R EC50;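 on all read-outs here: cAMP production read by luminescence after one hour of peptide exposure at room temperature, EC50 from logistic curve fit, native glucagon and GLP-1 as control peptides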
T1 construct: expressed in transfected cells; grown with Blasticidin and Hygromycin

human GLP1R = human GLP1R (Homo sapiens, UniProt P43220); test: cAMP activity assay, cells expressing human GLP1R; assay type: cell-based
[1] = Table 5, incretin peptides, cAMP, read-out: hGLP1R EC50
[2] = Table 5, incretin peptides, cAMP, read-out: hGCGR_EC50

Sequence of human GLP1R (P43220 24-463): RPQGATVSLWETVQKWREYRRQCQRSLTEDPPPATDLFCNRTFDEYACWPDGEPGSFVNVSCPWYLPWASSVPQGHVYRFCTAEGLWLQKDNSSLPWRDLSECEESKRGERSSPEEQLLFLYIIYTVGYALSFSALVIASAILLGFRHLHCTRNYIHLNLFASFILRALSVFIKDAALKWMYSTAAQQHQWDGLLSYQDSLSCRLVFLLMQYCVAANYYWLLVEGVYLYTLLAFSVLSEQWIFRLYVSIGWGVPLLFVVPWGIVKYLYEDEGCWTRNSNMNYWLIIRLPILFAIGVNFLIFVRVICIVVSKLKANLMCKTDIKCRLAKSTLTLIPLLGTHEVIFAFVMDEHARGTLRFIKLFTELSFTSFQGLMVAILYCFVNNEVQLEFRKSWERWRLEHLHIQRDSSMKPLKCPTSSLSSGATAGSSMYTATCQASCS
T1 sequence (P47871 26-477): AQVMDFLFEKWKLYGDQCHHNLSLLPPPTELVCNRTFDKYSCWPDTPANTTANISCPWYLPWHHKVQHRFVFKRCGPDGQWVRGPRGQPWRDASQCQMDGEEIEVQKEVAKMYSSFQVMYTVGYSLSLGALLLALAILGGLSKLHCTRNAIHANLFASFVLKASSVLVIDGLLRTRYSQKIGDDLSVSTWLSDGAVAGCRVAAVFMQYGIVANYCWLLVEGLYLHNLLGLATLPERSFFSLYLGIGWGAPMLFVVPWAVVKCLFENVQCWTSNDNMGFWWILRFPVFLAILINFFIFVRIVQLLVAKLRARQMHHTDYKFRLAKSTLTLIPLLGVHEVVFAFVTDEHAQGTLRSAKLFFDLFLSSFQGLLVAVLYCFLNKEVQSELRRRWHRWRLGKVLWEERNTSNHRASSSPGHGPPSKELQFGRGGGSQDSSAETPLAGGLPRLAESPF

| EC50 (human GLP1R; [1]) [nM] | EC50 (human GCGR; [2]) [nM] | Structure (SMILES) | EC50 (human GCGR) [nM] | GCGR/GLP1R ratio (human GCGR) | EC50 (human GLP1R) [nM] |
| --- | --- | --- | --- | --- | --- |
| – | – | CCCCCCCCCCCCCCCC(=O)N[C@@H](CCC(=O)N[C@@H](CCC(=O)NCCCC[C@H](NC(=O)[C@H](CC(=O)O)NC(=O)[C@H](CO)NC(=O)[C@@H](NC(=O)[C@H](Cc1ccccc1)NC(=O)[C@@H](NC(=O)CNC(=O)[C@H](CCC(=O)O)NC(=O)[C@@H](CO)NC(=O)[C@@H](N)Cc1c[nH]cn1)[C@@H](C)O)[C@@H](C)O)C(=O)N[C@@H](CO)C(=O)N[C@@H](CCCCN)C(=O)N[C@@H](Cc1ccc(O)cc1)C(=O)N[C@@H](CC(C)C)C(=O)N[C@@H](CC(=O)O)C(=O)N[C@@H](CCC(=O)O)C(=O)N[C@@H](CCCNC(=N)N)C(=O)N[C@@H](C)C(=O)N[C@@H](C)C(=O)N[C@@H](CCC(N)=O)C(=O)N[C@@H](CC(=O)O)C(=O)N[C@@H](Cc1ccccc1)C(=O)N[C@H](C(=O)N[C@@H](CCCCN=[N+]=[N-])C(=O)N[C@@H](Cc1c[nH]c2ccccc12)C(=O)N[C@@H](CC(C)C)C(=O)N[C@@H](CC(C)C)C(=O)N[C@@H](CC(=O)O)C(=O)N[C@H](C(N)=O)[C@@H](C)O)C(C)C)C(=O)O)C(=O)O [PEP75] | > 5 | >72 | 0.07 |
| – | – | CC(C)C[C@H](NC(=O)[C@H](Cc1ccc(O)cc1)NC(=O)[C@H](CCCCN)NC(=O)[C@H](CO)NC(=O)[C@H](Cc1ccc(O)cc1)NC(=O)[C@H](CC(=O)O)NC(=O)[C@H](CO)NC(=O)[C@@H](NC(=O)[C@H](Cc1ccccc1)NC(=O)[C@@H](NC(=O)CNC(=O)[C@H](CCC(N)=O)NC(=O)[C@@H](CO)NC(=O)[C@@H](N)Cc1c[nH]cn1)[C@@H](C)O)[C@@H](C)O)C(=O)N[C@@H](CC(=O)O)C(=O)N[C@@H](CCC(=O)O)C(=O)N[C@@H](CCCNC(=N)N)C(=O)N[C@@H](C)C(=O)N[C@@H](C)C(=O)N[C@@H](CCCCNC(=O)COCCOCCNC(=O)COCCOCCNC(=O)CC[C@H](NC(=O)CCCCCCCCCCCCCCCN=[N+]=[N-])C(=O)O)C(=O)N[C@@H](CC(=O)O)C(=O)N[C@@H](Cc1ccccc1)C(=O)N[C@H](C(=O)N[C@@H](CCC(N)=O)C(=O)N[C@@H](Cc1c[nH]c2ccccc12)C(=O)N[C@@H](CC(C)C)C(=O)N[C@@H](CC(C)C)C(=O)N[C@@H](CC(=O)O)C(=O)N[C@H](C(N)=O)[C@@H](C)O)C(C)C [PEP26] | 0.12 | 1.0 | 0.12 |
| – | – | CCCCCCCCCCCCCCCC(=O)N[C@@H](CCC(=O)N[C@@H](CCC(=O)NCCCC[C@H](NC(=O)[C@H](CC(=O)O)NC(=O)[C@H](CO)NC(=O)[C@@H](NC(=O)[C@H](Cc1ccccc1)NC(=O)[C@@H](NC(=O)CNC(=O)[C@H](CCC(N)=O)NC(=O)C(C)(C)NC(=O)[C@@H](N)Cc1c[nH]cn1)[C@@H](C)O)[C@@H](C)O)C(=O)N[C@@H](CO)C(=O)N[C@@H](CCCCN)C(=O)N[C@@H](Cc1ccc(O)cc1)C(=O)N[C@@H](CC(C)C)C(=O)N[C@@H](CC(=O)O)C(=O)NC(C)(C)C(=O)N[C@@H](CCCNC(=N)N)C(=O)N[C@@H](CCCNC(=N)N)C(=O)N[C@@H](C)C(=O)N[C@@H](CCC(N)=O)C(=O)N[C@@H](CC(=O)O)C(=O)N[C@@H](Cc1ccccc1)C(=O)N[C@H](C(=O)N[C@@H](CCC(N)=O)C(=O)N[C@@H](Cc1c[nH]c2ccccc12)C(=O)N[C@@H](CC(C)C)C(=O)N[C@@H](CC(C)C)C(=O)N[C@@H](CC(=O)O)C(=O)N[C@H](C(=O)N[C@@H](CCCCN=[N+]=[N-])C(=O)N[C@@H](CCC(N)=O)C(=O)O)[C@@H](C)O)C(C)C)C(=O)O)C(=O)O [PEP6] | 0.07 | – | 0.17 |
| 0.05 | – | CCCCCCCCCCCCCCCC(=O)N[C@@H](CCC(=O)N[C@@H](CCC(=O)NCCCC[C@H](NC(=O)[C@H](CC(=O)O)NC(=O)[C@H](CO)NC(=O)[C@@H](NC(=O)[C@H](Cc1ccccc1)NC(=O)[C@@H](NC(=O)CNC(=O)[C@H](CCC(N)=O)NC(=O)[C@@H](CO)NC(=O)[C@@H](N)Cc1c[nH]cn1)[C@@H](C)O)[C@@H](C)O)C(=O)N[C@@H](CO)C(=O)N[C@@H](CCCCN)C(=O)N[C@@H](Cc1ccc(O)cc1)C(=O)N[C@@H](CC(C)C)C(=O)N[C@@H](CC(=O)O)C(=O)N[C@@H](CCC(=O)O)C(=O)N[C@@H](CCCNC(=N)N)C(=O)N[C@@H](C)C(=O)N[C@@H](C)C(=O)N[C@@H](CCCCNC(=O)COCCOCCNC(=O)COCCOCCNC(=O)CCCCN=[N+]=[N-])C(=O)N[C@@H](CC(=O)O)C(=O)N[C@@H](Cc1ccccc1)C(=O)N[C@H](C(=O)N[C@@H](CCC(N)=O)C(=O)N[C@@H](Cc1c[nH]c2ccccc12)C(=O)N[C@@H](CC(C)C)C(=O)N[C@@H](CC(C)C)C(=O)N[C@@H](CC(=O)O)C(=O)N[C@H](C(N)=O)[C@@H](C)O)C(C)C)C(=O)O)C(=O)O [PEP17] | 0.06 | 1.2 | – |
| 0.03 | – | CCCCCCCCCCCCCCCC(=O)N[C@@H](CCC(=O)N[C@@H](CCC(=O)NCCCC[C@H](NC(=O)[C@H](CC(=O)O)NC(=O)[C@H](CO)NC(=O)[C@@H](NC(=O)[C@H](Cc1ccccc1)NC(=O)[C@@H](NC(=O)CNC(=O)[C@H](CCC(N)=O)NC(=O)[C@@H](CO)NC(=O)[C@@H](N)Cc1c[nH]cn1)[C@@H](C)O)[C@@H](C)O)C(=O)N[C@@H](CO)C(=O)N[C@@H](CCCCN)C(=O)N[C@@H](Cc1ccc(O)cc1)C(=O)N[C@@H](CC(C)C)C(=O)N[C@@H](CC(=O)O)C(=O)N[C@@H](CCC(=O)O)C(=O)N[C@@H](CCCNC(=N)N)C(=O)N[C@@H](C)C(=O)N[C@@H](C)C(=O)N[C@@H](CCC(N)=O)C(=O)N[C@@H](CCCCN=[N+]=[N-])C(=O)N[C@@H](Cc1ccccc1)C(=O)N[C@H](C(=O)N[C@@H](CCC(N)=O)C(=O)N[C@@H](Cc1c[nH]c2ccccc12)C(=O)N[C@@H](CC(C)C)C(=O)N[C@@H](CC(C)C)C(=O)N[C@@H](CC(=O)O)C(=O)N[C@H](C(N)=O)[C@@H](C)O)C(C)C)C(=O)O)C(=O)O [PEP1] | – | 0.5 | – |
| – | – | CC(C)C[C@H](NC(=O)[C@H](Cc1ccc(O)cc1)NC(=O)[C@H](CCCCN)NC(=O)[C@H](CO)NC(=O)[C@H](CCCCN)NC(=O)[C@H](CC(=O)O)NC(=O)[C@H](CO)NC(=O)[C@@H](NC(=O)[C@H](Cc1ccccc1)NC(=O)[C@@H](NC(=O)CNC(=O)[C@H](CCC(N)=O)NC(=O)[C@@H](CO)NC(=O)[C@@H](N)Cc1c[nH]cn1)[C@@H](C)O)[C@@H](C)O)C(=O)N[C@@H](CC(=O)O)C(=O)N[C@@H](CCC(=O)O)C(=O)N[C@@H](CCCNC(=N)N)C(=O)N[C@@H](C)C(=O)N[C@@H](C)C(=O)N[C@@H](CCC(N)=O)C(=O)N[C@@H](CC(=O)O)C(=O)N[C@@H](Cc1ccccc1)C(=O)N[C@H](C(=O)N[C@@H](CCCCN=[N+]=[N-])C(=O)N[C@@H](Cc1c[nH]c2ccccc12)C(=O)N[C@@H](CC(C)C)C(=O)N[C@@H](CC(C)C)C(=O)N[C@@H](CC(=O)O)C(=O)N[C@H](C(N)=O)[C@@H](C)O)C(C)C [PEP69] | 0.31 | 1.9 | 0.16 |
| 0.04 | 0.06 | CCCCCCCCCCCCCCCC(=O)N[C@@H](CCC(=O)N[C@@H](CCC(=O)NCCCC[C@H](NC(=O)[C@H](CC(=O)O)NC(=O)[C@H](CO)NC(=O)[C@@H](NC(=O)[C@H](Cc1ccccc1)NC(=O)[C@@H](NC(=O)CNC(=O)[C@H](CCC(N)=O)NC(=O)[C@@H](CO)NC(=O)[C@@H](N)Cc1c[nH]cn1)[C@@H](C)O)[C@@H](C)O)C(=O)N[C@@H](CO)C(=O)N[C@@H](CCCCN)C(=O)N[C@@H](Cc1ccc(O)cc1)C(=O)N[C@@H](CC(C)C)C(=O)N[C@@H](CC(=O)O)C(=O)N[C@@H](CCC(=O)O)C(=O)N[C@@H](CCCNC(=N)N)C(=O)N[C@@H](C)C(=O)N[C@@H](C)C(=O)N[C@@H](CCC(N)=O)C(=O)N[C@@H](CC(=O)O)C(=O)N[C@@H](Cc1ccccc1)C(=O)N[C@H](C(=O)N[C@@H](CCCCN=[N+]=[N-])C(=O)N[C@@H](Cc1c[nH]c2ccccc12)C(=O)N[C@@](C)(CC(C)C)C(=O)N[C@@H](CCS(C)(=O)=O)C(=O)N[C@@H](CC(=O)O)C(=O)N[C@H](C(N)=O)[C@@H](C)O)C(C)C)C(=O)O)C(=O)O [PEP37] | – | 1.5 | – |
| 0.07 | 2.7 | CSCC[C@H](NC(=O)[C@H](CC(C)C)NC(=O)[C@H](Cc1c[nH]c2ccccc12)NC(=O)[C@H](CCCCN=[N+]=[N-])NC(=O)[C@@H](NC(=O)[C@H](Cc1ccccc1)NC(=O)[C@H](CC(=O)O)NC(=O)[C@H](CCC(N)=O)NC(=O)[C@H](C)NC(=O)[C@H](C)NC(=O)[C@H](CCCNC(=N)N)NC(=O)C(C)(C)NC(=O)[C@H](CC(=O)O)NC(=O)[C@H](CC(C)C)NC(=O)[C@H](Cc1ccc(O)cc1)NC(=O)[C@H](CCCCN)NC(=O)[C@H](CO)NC(=O)[C@H](CCCCN)NC(=O)[C@H](CC(=O)O)NC(=O)[C@H](CO)NC(=O)[C@@H](NC(=O)[C@H](Cc1ccccc1)NC(=O)[C@@H](NC(=O)CNC(=O)[C@H](CCC(N)=O)NC(=O)C(C)(C)NC(=O)[C@@H](N)Cc1c[nH]cn1)[C@@H](C)O)[C@@H](C)O)C(C)C)C(=O)N[C@@H](CC(N)=O)C(=O)N[C@H](C(=O)N[C@@H](CCCCN)C(=O)N[C@@H](CCC(N)=O)C(=O)O)[C@@H](C)O [PEP68] (H-H[Aib]QGTFTSDKSKYLD[Aib]RAAQDFV[Lys(N3)]WLMNTKQ-OH; N-terminus assumed) | – | 38.6 | – |
| – | – | CCCCCCCCCCCCCCCC(=O)N[C@@H](CCC(=O)N[C@@H](CCC(=O)NCCCC[C@H](NC(=O)[C@H](CC(=O)O)NC(=O)[C@H](CO)NC(=O)[C@@H](NC(=O)[C@H](Cc1ccccc1)NC(=O)[C@@H](NC(=O)CNC(=O)[C@H](CCC(N)=O)NC(=O)C(C)(C)NC(=O)[C@@H](N)Cc1c[nH]cn1)[C@@H](C)O)[C@@H](C)O)C(=O)N[C@@H](CO)C(=O)N[C@@H](CCCCN)C(=O)N[C@@H](Cc1ccc(O)cc1)C(=O)N[C@@H](CC(C)C)C(=O)N[C@@H](CC(=O)O)C(=O)NC(C)(C)C(=O)N[C@@H](CCCNC(=N)N)C(=O)N[C@@H](C)C(=O)N[C@@H](C)C(=O)N[C@@H](CCC(N)=O)C(=O)N[C@@H](CC(=O)O)C(=O)N[C@@H](Cc1ccccc1)C(=O)N[C@H](C(=O)N[C@@H](CCCCN=[N+]=[N-])C(=O)N[C@@H](Cc1c[nH]c2ccccc12)C(=O)N[C@@H](CC(C)C)C(=O)N[C@@H](CCS(C)(=O)=O)C(=O)N[C@@H](CCCCN)C(=O)NCC(=O)N[C@@H](CCCNC(=N)N)C(=O)NCC(N)=O)C(C)C)C(=O)O)C(=O)O [PEP3] | 0.07 | 4.6 | 0.02 |
